Measured values published in US20230087825A1, “SMARCA DEGRADERS AND USES THEREOF” (Kymera Therapeutics, Inc., priority 2019, published 2023).

Molecular target: T1, SMARCA2 (Homo sapiens, UniProt P51531)
T1 construct: host or cells: NCI-H1299
Assay: MSD SMARCA2 degradation in NCI-H1299 cell line
Format: cell-based
Conditions: NCI-H1299 cells; percentage of SMARCA2 degradation after 24 hours
Description: Example 12. MSD SMARCA2 Degration in NCI-H1299 Cell Line
Cell Culture: Cells were cultured in exponential growth phase.
Compound Preparation and Treatment: NCI-H1299 cells were seeded into the 96-well plate at 4.0*10^4 cells per 100 ul per well. Incubate the plate in the incubator overnight. The next day, compounds were diluted to designed stock concentration by TECAN, then perform a 3 fold, 9-point dilution via transferring 15 uL compound into 30 μL DMSO using Apricot. 200 nL diluted compound from compound source plate were transferred into the 96-intermediate plate as designated by using Echo550, followed with 100 ul culture medium to make the 2× compound solution. Cell plate were changed with 80 ul of fresh culture medium and 80 ul of 2× compound solution was added into the well to achieve the final designed concentration. Cell plate was then shaken at 720 rpm for 5 min and incubated for 24 hours in the incubator.
Sample Preperation: Media was aspirated from the cultures and the plate was washed with PBS twice. […]
MSD Procedure: The MSD plate was coated with 40 ul cell lysate and incubated at 4° C. overnight. […] MSD plate was washed 3 times with 150 ul 1×TBST per well and 2× MSD reading buffer was added, 150 ul per well, and diluted from 4× with water. MSD instrument was then read.
Data Analysis: The percentage of relative level of SMARCA2 level was calculated following equation below. […]

T1 sequence (P51531 whole entry): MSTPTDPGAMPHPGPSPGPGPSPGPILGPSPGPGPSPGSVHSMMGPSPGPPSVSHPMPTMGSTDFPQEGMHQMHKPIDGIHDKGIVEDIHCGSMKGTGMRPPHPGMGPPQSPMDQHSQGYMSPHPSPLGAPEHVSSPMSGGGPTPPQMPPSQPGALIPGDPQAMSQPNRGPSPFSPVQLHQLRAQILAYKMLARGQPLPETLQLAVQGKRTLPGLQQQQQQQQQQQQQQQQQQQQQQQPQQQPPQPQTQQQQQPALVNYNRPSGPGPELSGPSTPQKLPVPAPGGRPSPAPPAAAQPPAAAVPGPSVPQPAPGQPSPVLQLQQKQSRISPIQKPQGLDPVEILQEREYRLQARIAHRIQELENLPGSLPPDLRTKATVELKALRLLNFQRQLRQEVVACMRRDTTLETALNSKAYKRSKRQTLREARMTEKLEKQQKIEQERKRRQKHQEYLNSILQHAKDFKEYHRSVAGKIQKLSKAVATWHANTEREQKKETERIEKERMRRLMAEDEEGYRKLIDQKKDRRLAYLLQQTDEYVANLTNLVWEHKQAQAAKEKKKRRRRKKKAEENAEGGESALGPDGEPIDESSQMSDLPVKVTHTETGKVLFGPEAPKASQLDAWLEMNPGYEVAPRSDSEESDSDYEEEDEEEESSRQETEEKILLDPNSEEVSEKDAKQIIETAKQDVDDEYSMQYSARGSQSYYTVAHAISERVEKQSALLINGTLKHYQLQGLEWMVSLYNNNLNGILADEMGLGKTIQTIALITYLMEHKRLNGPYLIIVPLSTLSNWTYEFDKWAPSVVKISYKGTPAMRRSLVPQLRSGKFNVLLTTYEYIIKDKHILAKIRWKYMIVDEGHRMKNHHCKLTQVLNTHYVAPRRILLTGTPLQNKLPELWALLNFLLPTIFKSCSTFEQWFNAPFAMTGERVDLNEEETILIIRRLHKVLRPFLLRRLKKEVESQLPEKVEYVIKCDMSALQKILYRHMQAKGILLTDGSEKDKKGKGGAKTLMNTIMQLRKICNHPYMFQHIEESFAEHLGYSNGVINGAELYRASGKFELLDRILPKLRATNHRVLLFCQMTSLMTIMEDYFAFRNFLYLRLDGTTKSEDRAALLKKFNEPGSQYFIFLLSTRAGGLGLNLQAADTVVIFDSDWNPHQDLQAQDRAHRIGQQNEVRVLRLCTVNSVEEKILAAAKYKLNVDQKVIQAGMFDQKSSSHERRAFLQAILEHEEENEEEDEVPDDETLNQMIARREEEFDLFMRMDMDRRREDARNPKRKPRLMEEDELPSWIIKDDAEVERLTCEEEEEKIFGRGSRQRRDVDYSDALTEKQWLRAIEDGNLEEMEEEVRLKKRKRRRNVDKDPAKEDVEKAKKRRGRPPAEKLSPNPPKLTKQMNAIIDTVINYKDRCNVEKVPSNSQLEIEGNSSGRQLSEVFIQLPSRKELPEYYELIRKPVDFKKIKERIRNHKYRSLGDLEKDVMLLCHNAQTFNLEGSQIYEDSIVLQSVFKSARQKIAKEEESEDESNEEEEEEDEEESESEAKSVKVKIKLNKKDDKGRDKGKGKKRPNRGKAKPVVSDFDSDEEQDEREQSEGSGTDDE

Dmax [%] | Structure (SMILES)
70 to 90 | Nc1nnc(-c2ccccc2O)cc1-c1ccc(CN2CCN(CCCCCc3cccc4c3c3ccccc3n4C3CCC(=O)NC3=O)CC2)cc1 (centres unmarked) [I-7]
50 to 70 | Nc1nnc(-c2ccccc2O)cc1-c1ccc(CN2CCN(CCCCOCCCc3ccc4c(c3)c3ccccc3n4C3CCC(=O)NC3=O)CC2)cc1 (centres unmarked) [I-10]
